Patent US6410533B1, “Antibacterial compounds” (Genzyme Corporation, priority 2000, dated 2002)
Values after ≈ are worked out from the molar mass of the structure shown. Where two headings read alike, the source gives them in different places.

Tests used:
[1] = test system: Staphylococcus aureus bacteria (ATCC 9604 SV); assay: IC50 determination, growth inhibition by turbidity at 550 nm; assay type: cell-based; conditions: Staphylococcus aureus ATCC 9604 SV, turbidity at 550 nm after 3-5 h at 37° C.
Description: (§1) Minimal inhibitory concentrations (MICs) for Staphylococcus aureus bacteria (ATCC 9604 SV) were determined by broth microdilution methodology following National Committee for Clinical Laboratory Standards. In the MIC determinations, the compounds were incorporated into Mueller-Hinton broth (Becton Dickinson Microbiology systems, Cockeyville, Md.) at a series of concentrations. After the test organism was grown overnight in TB broth, the broths were adjusted to the turbidity equivalent to 0.05 McFarland standard. The suspensions were diluted twenty-fold into the broth containing the compounds. […] In the IC50 determination, the method was modified to allow the rapid growth of the organisms. The inoculum suspensions were adjusted to 0.1 McFarland standard and then diluted two-fold into the wells containing TB broth and the compounds. After three to five hours incubation at 37° C., the turbidity was measured at 550 nm and inhibitory activity was defined as the concentration of antimicrobial agent that inhibits 50% growth of the organism in the microdilution wells.

[2] = test system: methicillin-resistant Staphylococcus aureus (ATCC 33591); assay: In vivo mouse intraperitoneal infection, mortality and % survivors over 7 days; conditions: MRSA ATCC 33591 i.p., ICR mice; for In Vivo, double dose (% of mice rescued): 1 and 5 h post inoculation; for In Vivo, single dose (% of mice rescued): single dose 1 h post inoculation
Description: Ten male ICR mice weighing 20 grams were inoculated intraperitoneally with an LD90-100 dose (2-3×10^7 CFU/mouse) of methicillin-resistant Staphylococcus aureus (ATCC 33591) in brain-heart infusion broth containing 5% mucin. Compounds were suspended in a vehicle containing 1% cremophore EL (Sigma) in normal saline and were administered subcutaneously in a volume of 0.4 ml per mouse either 1 hour following bacterial inoculation or 1 and 5 hours post inoculation. Animals receiving two doses of drug were injected subcutaneously in the hindquarter one hour post-innoculation and in the neck area, 5 hours post-innoculation. Deaths occurring during the subsequent 7 days are recorded. Mortality and % survivor endpoints are calculated.

[3] = test system: Staphylococcus aureus bacteria (ATCC 9604 SV); assay: Minimal inhibitory concentration (MIC), broth microdilution; assay type: cell-based; conditions: 24 h at 37° C.
Description: as §1

[4] = ATCC9604, Staphylococcus aureus ATCC 9604 SV, read-out: MIC
[5] = Staphylococcus aureus ATCC 9604 SV

Row | Compound | IC50 [1] | In Vivo, double dose (% of mice rescued) ([2]; 2 × 2 mg/kg s.c.) | In Vivo, double dose (% of mice rescued) ([2]; 2 × 20 mg/kg s.c.) | further results
1 | O=C(Nc1cc(C(F)(F)F)cc(C(F)(F)F)c1)Nc1cc(-c2cccc(C(F)(F)F)c2)nn1-c1ccc(C(F)(F)F)cc1 [Compound 80] | 539 nM | – | – | –
2 | O=C(Nc1cc(C(F)(F)F)cc(C(F)(F)F)c1)Nc1nc(-c2ccc(Cl)cc2)cs1 [Compound 138, 1-(3,5-Bis-trifluoromethyl-phenyl)-3-[4-(4-chloro-phenyl)-thiazol-2-yl]-urea] | – | – | – | IC50 ([1]; ATCC9604): 100 nM
3 | O=C(Nc1nc(-c2ccc(Cl)cc2)cs1)Nc1c(Cl)cc(Cl)cc1Cl [Compound 171] | 927 nM | – | – | –
4 | O=C(c1ccccn1)C1C(=O)N(c2cc(Cl)cc(Cl)c2)N=C1c1ccccc1 (centres unmarked) [Compound 50, 2-(3,5-Dichloro-phenyl)-5-phenyl-4-(pyridine-2-carbonyl)-2,4-dihydro-pyrazol-3-one] | – | 0% @ 2 × 2 mg/kg | 0% @ 2 × 20 mg/kg | MIC [3, 4]: 10.3 µg/mL (≈ 25.1 µM)
5 | O=C1C(CCc2ccccn2)C(c2ccccc2)=NN1c1cc(Cl)cc(Cl)c1 (centres unmarked) [Compound 66] | – | 25% @ 2 × 2 mg/kg | 0% @ 2 × 20 mg/kg | MIC [3, 5]: 5.13 µg/mL (≈ 12.5 µM)
6 | CCC1=NN(c2cc(Cl)cc(Cl)c2)C(=O)C1=C1C(=O)Nc2ccccc21 [Compound 56] | – | 0% @ 2 × 2 mg/kg | 0% @ 2 × 20 mg/kg | MIC [3, 5]: 1.50 µg/mL (≈ 3.88 µM)
7 | O=C(Nc1cc(C(F)(F)F)cc(C(F)(F)F)c1)Nc1nc(CCCO)cs1 [Compound 125] | 2070 nM | – | – | –
8 | O=C(O)c1ccc(C=C2C(=O)N(c3cc(Cl)cc(Cl)c3)N=C2c2ccccc2)cc1 [Compound 52] | – | 0% @ 2 × 2 mg/kg | 0% @ 2 × 20 mg/kg | MIC [3, 5]: 0.656 µg/mL (≈ 1.5 µM)
9 | COc1cccc(-c2csc(NC(=O)Nc3cc(C(F)(F)F)cc(C(F)(F)F)c3)n2)c1 [Compound 134] | 4520 nM | – | – | –
10 | O=C1C(=Cc2cccnc2)C(c2ccccc2)=NN1c1cc(Cl)cc(Cl)c1 [Compound 30] | – | 0% @ 2 × 2 mg/kg | 0% @ 2 × 20 mg/kg | MIC [3, 5]: 1.20 µg/mL (≈ 3.04 µM)
11 | O=C(O)C=C1C(=O)N(c2cc(Cl)cc(Cl)c2)N=C1c1ccccc1 [Compound 46] | – | 0% @ 2 × 2 mg/kg | 0% @ 2 × 20 mg/kg | MIC [3, 5]: 1.50 µg/mL (≈ 4.15 µM)
12 | CCC1=NN(c2cc(Cl)cc(Cl)c2)C(=O)C1=Cc1cccc(C(=O)O)c1 [Compound 58] | – | 25% @ 2 × 2 mg/kg | 12.5% @ 2 × 20 mg/kg | MIC [3, 5]: 6.25 µg/mL (≈ 16.1 µM)
13 | O=C(Nc1cc(C(F)(F)F)cc(C(F)(F)F)c1)Nc1c(-c2ccccc2)cnn1-c1ccc(C(F)(F)F)cc1 [Compound 71] | 330 nM | – | – | –
14 | CCC1=NN(c2cc(Cl)cc(Cl)c2)C(=O)C1 [Compound 17] | – | 12.5% @ 2 × 2 mg/kg | 25% @ 2 × 20 mg/kg | MIC [3, 5]: 1.54 µg/mL (≈ 5.99 µM)
15 | COc1ccc(-c2cc(NC(=O)Nc3cc(C(F)(F)F)cc(C(F)(F)F)c3)n(-c3ccc(C(F)(F)F)cc3)n2)cc1 [Compound 82] | 149 nM | – | – | –
16 | O=C1Nc2ccccc2C1=C1C(=O)N(c2cc(Cl)cc(Cl)c2)N=C1c1ccccc1 [Compound 42] | – | 0% @ 2 × 2 mg/kg | 0% @ 2 × 20 mg/kg | MIC [3, 5]: 1.20 µg/mL (≈ 2.76 µM)
17 | O=C(Nc1cc(C(F)(F)F)cc(C(F)(F)F)c1)Nc1nc(-c2ccccc2)cs1 [Compound 132] | 970 nM | – | – | –
18 | COc1ccc(-c2csc(NC(=O)Nc3cc(C(F)(F)F)cc(C(F)(F)F)c3)n2)cc1 [Compound 141] | 1360 nM | – | – | –
19 | O=C(NCc1cccc(Cl)c1)Nc1nc(C2CCCC2)cs1 [Compound 173] | – | 25% @ 2 × 2 mg/kg | 25% @ 2 × 20 mg/kg | MIC [3, 5]: 8.40 µg/mL (≈ 25 µM)
20 | O=C1CC(Cc2ccccc2)=NN1c1cc(Cl)cc(Cl)c1 [Compound 65] | – | 0% @ 2 × 2 mg/kg | 0% @ 2 × 20 mg/kg | MIC [3, 5]: 0.958 µg/mL (≈ 3 µM)
21 | O=C1C(=NO)C(c2ccccc2)=NN1c1cc(Cl)cc(Cl)c1 [Compound 23, 2-(3,5-Dichloro-phenyl)-5-phenyl-2H-pyrazole-3,4-dione-4-oxime] | – | 0% @ 2 × 2 mg/kg | 25% @ 2 × 20 mg/kg | MIC [3, 4]: 8.35 µg/mL (≈ 25 µM)
22 | O=C1CC(c2cccc(F)c2)=NN1c1cc(Cl)cc(Cl)c1 [Compound 15] | – | 0% @ 2 × 2 mg/kg | 0% @ 2 × 20 mg/kg | MIC [3, 5]: 0.485 µg/mL (≈ 1.5 µM)
23 | O=C(Nc1cc(C(F)(F)F)cc(C(F)(F)F)c1)Nc1nc(-c2ccc(F)cc2)cs1 [Compound 139] | 100 nM | – | – | In Vivo, single dose (% of mice rescued) ([2]; 2 mg/kg s.c.): 0% @ 2 mg/kg; In Vivo, single dose (% of mice rescued) ([2]; 20 mg/kg s.c.): 0% @ 20 mg/kg
24 | O=C(O)c1cccc(C=C2C(=O)N(c3cc(Cl)cc(Cl)c3)N=C2c2ccccc2)c1 [Compound 51] | – | 25% @ 2 × 2 mg/kg | 25% @ 2 × 20 mg/kg | MIC [3, 5]: 1.31 µg/mL (≈ 3 µM)
25 | CN1CCC(=C2C(=O)N(c3cc(Cl)cc(Cl)c3)N=C2c2ccccc2)CC1 [Compound 31, 2-(3,5-Dichloro-phenyl)-4-(1-methyl-piperidin-4-ylidene)-5-phenyl-2,4-dihydropyrazol-3-one] | – | 0% @ 2 × 2 mg/kg | 0% @ 2 × 20 mg/kg | MIC [3, 4]: 5 µg/mL (≈ 12.5 µM)

More lines, main results first:

Row | IC50 [1] | Compound | In Vivo, double dose (% of mice rescued) ([2]; 2 × 2 mg/kg s.c.) | In Vivo, double dose (% of mice rescued) ([2]; 2 × 20 mg/kg s.c.) | further results
26 | 653 nM | Cc1ccc(-c2csc(NC(=O)Nc3cc(C(F)(F)F)cc(C(F)(F)F)c3)n2)cc1 [Compound 140] | – | – | –
27 | 133 nM | O=C(Nc1cc(C(F)(F)F)cc(C(F)(F)F)c1)Nc1nc(-c2ccc(Br)cc2)cs1 [Compound 136] | – | – | –
28 | 1450 nM | O=C(Nc1cc(C(F)(F)F)cc(C(F)(F)F)c1)Nc1nc(-c2ccc3ccccc3c2)cs1 [Compound 153] | – | – | –
29 | 332 nM | Cc1c(-c2csc(NC(=O)Nc3cc(C(F)(F)F)cc(C(F)(F)F)c3)n2)sc2ccc(Cl)cc12 [Compound 157] | – | – | –
30 | 126 nM | O=C(Nc1cc(C(F)(F)F)cc(C(F)(F)F)c1)Nc1cc(-c2ccc(Cl)cc2)nn1-c1ccc(C(F)(F)F)cc1 [Compound 79] | – | – | –
31 | 838 nM | Cc1sc(NC(=O)Nc2cc(C(F)(F)F)cc(C(F)(F)F)c2)nc1-c1ccc(Br)cc1 [Compound 137] | – | – | –
32 | 400 nM | O=C(Nc1cc(C(F)(F)F)cc(C(F)(F)F)c1)Nc1nc(-c2ccc(Cl)cc2Cl)cs1 [Compound 148] | – | – | –
33 | 159 nM | O=C(Nc1cc(C(F)(F)F)cc(C(F)(F)F)c1)Nc1cc(-c2ccc(OC(F)(F)F)cc2)nn1-c1ccc(C(F)(F)F)cc1 [Compound 81] | – | – | –
34 | 175 nM | O=C(Nc1ccc(F)c(C(F)(F)F)c1)Nc1nc(-c2ccc(Cl)cc2)cs1 [Compound 167] | – | – | –
35 | 4630 nM | COc1ccccc1-c1csc(NC(=O)Nc2cc(C(F)(F)F)cc(C(F)(F)F)c2)n1 [Compound 133] | – | – | –
36 | 205 nM | O=C(Nc1ccc(F)c(C(F)(F)F)c1)Nc1nc(-c2ccc(Br)cc2)cs1 [Compound 166] | – | – | –
37 | 337 nM | N#Cc1ccc(-c2csc(NC(=O)Nc3cc(C(F)(F)F)cc(C(F)(F)F)c3)n2)cc1 [Compound 144] | – | – | –
38 | 359 nM | O=C(Nc1cc(C(F)(F)F)cc(C(F)(F)F)c1)Nc1cc(-c2ccccn2)nn1-c1ccc(C(F)(F)F)cc1 [Compound 85] | – | – | –
39 | 513 nM | CC(C)(C)c1csc(NC(=O)Nc2cc(C(F)(F)F)cc(C(F)(F)F)c2)n1 [Compound 124] | – | – | –
40 | 543 nM | O=C(Nc1cccc(Br)c1)Nc1nc(-c2ccc(Br)cc2)cs1 [Compound 159] | – | – | –
41 | 4710 nM | O=C(Nc1nc(-c2ccc(Cl)cc2)cs1)Nc1ccc(Br)cc1C(F)(F)F [Compound 162] | – | – | –
42 | 2650 nM | O=C(Nc1cc(Cl)cc(Cl)c1)Nc1nc(-c2ccc(F)c(F)c2)cs1 [Compound 164] | – | – | –
43 | 206 nM | O=C(Nc1cc(C(F)(F)F)cc(C(F)(F)F)c1)Nc1cc(-c2cccc(Cl)c2)nn1-c1ccc(C(F)(F)F)cc1 [Compound 78] | – | – | –
44 | 799 nM | O=C(Nc1cc(C(F)(F)F)cc(C(F)(F)F)c1)Nc1nc(-c2ccc(-c3ccccc3)cc2)cs1 [Compound 147] | – | – | –
45 | 410 nM | O=C(Nc1cc(C(F)(F)F)cc(C(F)(F)F)c1)Nc1nc(-c2ccc(Cl)c(Cl)c2)cs1 [Compound 150] | – | – | –
46 | 879 nM | O=C(Nc1cc(C(F)(F)F)cc(C(F)(F)F)c1)Nc1nc(-c2ccc(F)cc2F)cs1 [Compound 149] | – | – | –
47 | 1630 nM | Cc1cc(-c2cc(NC(=O)Nc3cc(Cl)cc(Cl)c3)n(-c3ccc(Br)cc3)n2)no1 [Compound 114] | – | – | –
48 | 180 nM | O=C(Nc1cc(Cl)cc(Cl)c1)Nc1nc(-c2ccc(Cl)cc2)cs1 [Compound 163] | – | – | –
